# In PubChem BioAssay (NCI):
# Several values for one entry are separate records, joined by “and”; a condition that tells them apart may be missing. Equal values may be shown once.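 Test compounds were applied to cells in 96-well plates for 48 hours at 5 doses. GI50: concentration for 50% inhibition of growth. TGI is the concentration that stops growth completely.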
# Key:
# Assay in all cases: NCI anticancer screen, dose series, 48 h
# [1] = system: HL-60(TB) leukemia
# [2] = system: IGROV1 ovarian
# [3] = system: LOX IMVI melanoma
# [4] = system: NCI-H522 lung
# [5] = system: SK-MEL-28 melanoma
# [6] = system: SNB-19 CNS
# [7] = system: SR leukemia
# [8] = system: A498 renal
# [9] = system: DU-145 prostate
# [10] = system: MDA-MB-435
Compound,TGI [1],TGI [2],TGI [3],TGI [4],TGI [5],TGI [6],TGI [7],TGI [8],GI50 [8],GI50 [1],GI50 [2],GI50 [3],GI50 [4],GI50 [5],GI50 [6],GI50 [9],TGI [9],GI50 [10],TGI [10],GI50 [7]
COC(=O)NC(=O)c1cn(C2OC(CO)C(O)C2O)c(=O)[nH]c1=O (stereo not drawn),> 100 µM,> 100 µM,> 100 µM,> 100 µM,> 100 µM,> 100 µM,> 100 µM,,,,,,,,,,,,,
CCOC(=O)C12CCCC1(O)N(NC(=O)OC(C)(C)C)C(C)=C2C(=O)OC (stereo not drawn),> 100 µM,> 100 µM,> 100 µM,> 100 µM,,> 100 µM,,> 100 µM,,,,,,,,,,,,
CCCCCCCCCCCc1nnc(N)o1,> 100 µM,> 100 µM,> 100 µM,> 100 µM,> 100 µM,50.7 µM,,,,,,,,,,,,,,
CN(O)C(=O)SCC(NC(=O)CCC(N)C(=O)O)C(=O)NCC(=O)O (stereo not drawn),> 2000 µM,> 2000 µM,> 2000 µM,> 2000 µM,> 2000 µM,> 2000 µM,> 2 µM,> 2000 µM,> 2000 µM,> 2 µM and 1200 µM,> 2000 µM,668 µM,> 2000 µM,> 2000 µM,> 2000 µM,,,,,
COc1ccc(/C=N/N=C(\N)NO)cc1O,,> 100 µM,> 100 µM,,> 100 µM,> 100 µM,,,,,,,,,,,,,,
O/N=C1/C(=C/c2ccc3c(c2)OCO3)CCCC1C(NO)c1ccc2c(c1)OCO2 (stereo not drawn),36.4 µM,86.5 µM,,40.2 µM,40.1 µM,> 100 µM,,79 µM,,,,,,,,,,,,
COC(=O)CC1C[C@H](C#N)N(C(=O)c2ccccc2)C[C@@H]1CC[N+](=O)[O-] (stereo partly drawn),> 100 µM,> 100 µM,> 100 µM,,> 100 µM,> 100 µM,> 100 µM,> 100 µM,,,,,,,,,,,,
CC(=O)NC1C(OC[C@@H](CC(=O)N[C@@H](CC(=O)O)CC(=O)N[C@H](CC(=O)N[C@@H](CCCN)CC(=O)N[C@@H](CCCN)CC(=O)N[C@H](CC(N)=O)C(C)C)C(C)C)NC(=O)C[C@@H](N)C(C)C)OC(CO)C(O)C1O (stereo partly drawn),> 100 µM,> 100 µM,> 100 µM,> 100 µM,> 100 µM,> 100 µM,,> 100 µM,> 100 µM,> 100 µM,> 100 µM,> 100 µM,> 100 µM,> 100 µM,> 100 µM,> 100 µM,> 100 µM,> 100 µM,> 100 µM,
O=C(O)CCCSC(=O)Nc1ccc(N=Nc2ccccc2)cc1,,,> 100 µM,> 100 µM,> 100 µM,> 100 µM,> 100 µM,> 100 µM,,,,,,,,,,,,
CCOC(=O)/C(C=Nc1ccc(-c2nc3ccccc3[nH]2)cc1)=C(/C)O,44 µM,16.2 µM,16.5 µM,26.4 µM,,> 50 µM,,,,18.5 µM,7.35 µM,9.13 µM,10.7 µM,,32.7 µM,10.1 µM,33.3 µM,14.9 µM,43.4 µM,
CN1CCC2(CC1)ONC1=NCCN12,,,,> 100 µM,> 100 µM,> 100 µM,,> 100 µM,41.4 µM,,,,29.3 µM,> 100 µM,> 100 µM,51.3 µM,> 100 µM,80.6 µM,> 100 µM,
C/C=C(\C)C(=O)NC1=CC[C@@]2(C)C(=CCC3C2CC[C@@]2(C)C3CC[C@@H]2C(C)N(C)C)C1=O (stereo partly drawn),5.2 µM,21 µM,3.58 µM,24 µM,3.24 µM,> 64.1 µM,,18.2 µM,2.03 µM,1.42 µM,5.17 µM,1.63 µM,7.79 µM,1.72 µM,15.9 µM,7.06 µM,> 59.5 µM,2.35 µM,7.08 µM,
O=C(COc1ccc(Cl)cc1)N1N=C(c2ccc(Cl)cc2)CC1(O)c1ccccc1 (stereo not drawn),28 µM,61.6 µM,26.6 µM,50.2 µM,35.3 µM,> 100 µM,17.7 µM,26.5 µM,,,,,,,,,,,,
CC1=C(C(=O)Nc2cc(=O)n(C)c(=O)n2C)C(c2ccco2)C(C(=O)Nc2cc(=O)n(C)c(=O)n2C)=C(C)N1,> 100 µM,> 100 µM,> 100 µM,> 100 µM,> 100 µM,> 100 µM,,> 100 µM,,,,,,,,,,,,
CCN(CC)c1c(C(=O)/C=C/c2ccc(Cl)cc2)c(-c2ccccc2)nn(C)c1=O,6.46 µM,4.21 µM,3.48 µM,2.98 µM,3.02 µM,3.98 µM,,4.44 µM,,,,,,,,,,,,
Cc1cccc(/C=C/c2c(C(=O)/C=C/c3ccccc3)c(C)nc3ccccc23)c1,4.34 µM,4 µM,2.93 µM,,3.28 µM,3.04 µM,4.94 µM,3.26 µM,1.77 µM,1.83 µM,1.44 µM,1.58 µM,,1.81 µM,1.67 µM,,,1.81 µM,4.29 µM,0.982 µM
O=C(O)C1=C(O)C(C(=O)O)C23CCCCCCCCCCC12C(C(=O)O)C(O)=C3C(=O)O (stereo not drawn),> 100 µM,> 100 µM,,> 100 µM,> 100 µM,> 100 µM,> 100 µM,,,,,,,,,,,,,
O=C(NCCCCNc1cccccc1=O)OCc1ccccc1,> 100 µM,> 100 µM,> 100 µM,> 100 µM,> 100 µM,> 100 µM,,> 100 µM,,,,,,,,,,,,
Cc1cc(CC(=O)NCCO)n(CCO)c(=O)c1,> 100 µM,> 100 µM,> 100 µM,> 100 µM,> 100 µM,> 100 µM,> 100 µM,,,,,,,,,,,,,
C=CCNC(=O)N(CCCCC(NC(C)=O)C(=O)NCc1ccccc1)Cc1ccccc1 (stereo not drawn),> 100 µM,> 100 µM,> 100 µM,> 100 µM,> 100 µM,> 100 µM,,> 100 µM,,,,,,,,,,,,
CCc1ccccc1NC(=O)C1=C(C)NC(C)=C(C(=O)Nc2ccccc2CC)C1c1ccccc1Cl,> 100 µM,> 100 µM,> 100 µM,> 100 µM,> 100 µM,> 100 µM,,> 100 µM,,,,,,,,,,,,
COC1=C(N)C(=O)c2nc(C)ccc2C1=O,> 26.9 µM,23.3 µM,2.49 µM,3.21 µM,3.27 µM,3.83 µM,> 24 µM,3.57 µM,,,,,,,,,,,,
CN(/N=C/c1cccc2cccnc12)c1ccc([N+](=O)[O-])cc1[N+](=O)[O-],> 68.1 µM,70.8 µM,> 100 µM,57.2 µM,> 100 µM,40.2 µM,,43.7 µM,,,,,,,,,> 100 µM,,> 100 µM,
